Literature values as cited in patent US20260345480A1, “PHARMACEUTICAL DOSAGE FORMS FOR PULSATILE RELEASE” (CHIESI FARMACEUTICI S.P.A., priority 2023, published 2026).

Test system: animals
Details: continuous infusion for periods longer than 24 hours

For `Cc1c(O)c(=O)ccn1C` [deferiprone], the “toxicity on continuous infusion (in words)” value is given as “potential toxicity of deferiprone observed in animals undergoing continuous infusion for periods longer than 24 hours”.
